The record followed here is ChEMBL document CHEMBL1201862, “PubChem BioAssay data set” (2004).

Calls of active or inactive are those of the source.

The term CC50 denotes the concentration that lowers cell viability or growth by half. As usually defined, the AC50 is the midpoint of the concentration-response curve, whichever way the signal moves.

Experiment [1] can be described thus: A Cell Based Secondary Assay To Explore Cytotoxicity of Compounds that Sensitize Mycobacterium Tuberculosis to Beta-Lactam Antibiotics. In kind it is functional.
Experiment [2] in a line: Counterscreen for antagonists of the orexin 1 receptor (OX1R; HCRTR1): Fluorescence-based cell-based high throughput dose response assay to identify antagonists of the parental CHO cell line. [Related pubchem assays (depositor defined):AID434989, AID435008, AID463079, AID485270, AID492963, AID492964, AID492965, AID493232, AID504699, AID504701]. The class given is functional.

The target in experiment [3] is T1, Orexin/Hypocretin receptor type 1 (Homo sapiens, UniProt O43613).
T1 sequence (O43613 whole entry): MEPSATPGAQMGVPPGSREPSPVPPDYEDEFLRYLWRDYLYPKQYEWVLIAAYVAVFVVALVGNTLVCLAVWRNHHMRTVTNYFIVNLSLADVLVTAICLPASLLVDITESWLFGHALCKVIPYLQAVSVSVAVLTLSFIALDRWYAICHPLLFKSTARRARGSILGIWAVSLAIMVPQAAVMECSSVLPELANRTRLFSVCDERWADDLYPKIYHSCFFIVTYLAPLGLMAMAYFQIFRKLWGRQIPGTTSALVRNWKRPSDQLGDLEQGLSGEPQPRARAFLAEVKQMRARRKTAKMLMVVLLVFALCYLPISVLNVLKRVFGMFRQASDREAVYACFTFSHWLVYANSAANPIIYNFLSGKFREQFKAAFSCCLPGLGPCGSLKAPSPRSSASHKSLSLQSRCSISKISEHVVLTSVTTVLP
Briefly: Homogeneous Time Resolved Fluorescence (HTRF)-based cell-based high throughput dose response assay for antagonists of the orexin 1 receptor (OX1R; HCRTR1). [Related pubchem assays (depositor defined):AID434989, AID435008, AID463079, AID485270, AID492963, AID492964, AID492965, AID493232, AID504717, AID504718]. The class given is functional. In general terms: Time-resolved FRET reads energy transfer from a long-lived donor to a nearby acceptor.

Experiment [4] has as its target T1, Orexin/Hypocretin receptor type 1. Description: Fluorescence-based cell-based high throughput dose response assay for antagonists of the orexin 1 receptor (OX1R; HCRTR1). [Related pubchem assays (depositor defined):AID434989, AID435008, AID463079, AID485270, AID492963, AID492964, AID492965, AID493232, AID504717, AID504718]. The class given is functional.
The target of experiment [5] is T2, Orexin receptor type 2 (Homo sapiens, UniProt O43614).
T2 sequence (O43614 whole entry): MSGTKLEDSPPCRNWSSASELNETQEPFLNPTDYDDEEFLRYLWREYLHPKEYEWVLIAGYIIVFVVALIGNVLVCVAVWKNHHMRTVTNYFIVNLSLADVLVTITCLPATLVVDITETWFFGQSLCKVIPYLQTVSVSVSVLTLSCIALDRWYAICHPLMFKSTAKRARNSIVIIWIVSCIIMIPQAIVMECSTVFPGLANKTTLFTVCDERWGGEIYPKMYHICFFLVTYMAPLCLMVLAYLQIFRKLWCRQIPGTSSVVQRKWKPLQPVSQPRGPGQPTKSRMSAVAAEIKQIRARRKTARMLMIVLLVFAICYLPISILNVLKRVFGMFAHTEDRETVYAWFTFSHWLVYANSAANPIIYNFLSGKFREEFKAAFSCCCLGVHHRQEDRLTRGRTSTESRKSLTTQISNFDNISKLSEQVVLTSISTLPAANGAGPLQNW
Briefly: Counterscreen assay for antagonists of the orexin 1 receptor (OX1R; HCRTR1): Fluorescence-based cell-based dose response assay for antagonists of the orexin 2 receptor (OX2R; HCRTR2), run by assay provider. In kind it is functional. For orientation: A counterscreen serves to expose hits that act by an unwanted route or on another target.

The subject of another experiment is CHO-K1. Briefly: Counterscreen for antagonists of the orexin 1 receptor (OX1R; HCRTR1): Homogeneous time resolved fluorescence (HTRF)-based cell-based dose response assay to identify antagonists of the parental CHO-K1 cell line. [Related pubchem assays (depositor defined):AID434989, AID435008, AID463079, AID485270, AID492963, AID492964, AID492965, AID493232, AID504699, AID504701]. The class given is functional. The conditions noted are these: Cricetulus griseus.

Experiment [6] deals with T2, Orexin receptor type 2. Description: Counterscreen assay for antagonists of the orexin 1 receptor (OX1R; HCRTR1): Homogeneous Time Resolved Fluorescence (HTRF)-based cell-based dose response assay for antagonists of the orexin 2 receptor (OX2R; HCRTR2), run by assay provider. In kind it is functional.
Experiment [7] has as its target T3, Corticotropin-releasing factor receptor 2/Corticotropin-releasing factor-binding protein (Homo sapiens, UniProt P24387+Q13324).
T3 sequence (Q13324 whole entry): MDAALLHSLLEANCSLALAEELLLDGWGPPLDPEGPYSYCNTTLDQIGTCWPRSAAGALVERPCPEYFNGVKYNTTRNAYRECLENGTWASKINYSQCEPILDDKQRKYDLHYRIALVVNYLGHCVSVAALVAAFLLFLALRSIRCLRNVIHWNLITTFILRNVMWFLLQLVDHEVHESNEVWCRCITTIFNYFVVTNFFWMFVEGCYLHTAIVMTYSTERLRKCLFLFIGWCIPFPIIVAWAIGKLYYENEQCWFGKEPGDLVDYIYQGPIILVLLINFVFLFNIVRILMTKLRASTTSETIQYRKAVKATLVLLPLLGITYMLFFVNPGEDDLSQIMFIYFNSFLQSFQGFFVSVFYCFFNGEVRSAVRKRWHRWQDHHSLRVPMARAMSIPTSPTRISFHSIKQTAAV
T3 sequence (P24387 whole entry): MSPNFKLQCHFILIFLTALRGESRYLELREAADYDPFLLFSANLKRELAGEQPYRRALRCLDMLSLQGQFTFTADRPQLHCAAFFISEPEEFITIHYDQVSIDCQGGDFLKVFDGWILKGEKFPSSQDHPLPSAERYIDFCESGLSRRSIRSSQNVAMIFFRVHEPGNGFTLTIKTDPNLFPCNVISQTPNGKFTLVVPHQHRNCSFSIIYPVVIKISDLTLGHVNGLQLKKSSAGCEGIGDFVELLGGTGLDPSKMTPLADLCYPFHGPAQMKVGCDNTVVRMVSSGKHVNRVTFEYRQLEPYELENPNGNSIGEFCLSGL
Description: Dose Response confirmation of uHTS hits for small molecule antagonists of the CRF-binding protein and CRF-R2 receptor complex. The class given is functional. The conditions noted are these: read-out: IC50_Mean.

Experiment [8] deals with T4, High affinity choline transporter 1 (Homo sapiens, UniProt Q9GZV3).
T4 sequence (Q9GZV3 whole entry): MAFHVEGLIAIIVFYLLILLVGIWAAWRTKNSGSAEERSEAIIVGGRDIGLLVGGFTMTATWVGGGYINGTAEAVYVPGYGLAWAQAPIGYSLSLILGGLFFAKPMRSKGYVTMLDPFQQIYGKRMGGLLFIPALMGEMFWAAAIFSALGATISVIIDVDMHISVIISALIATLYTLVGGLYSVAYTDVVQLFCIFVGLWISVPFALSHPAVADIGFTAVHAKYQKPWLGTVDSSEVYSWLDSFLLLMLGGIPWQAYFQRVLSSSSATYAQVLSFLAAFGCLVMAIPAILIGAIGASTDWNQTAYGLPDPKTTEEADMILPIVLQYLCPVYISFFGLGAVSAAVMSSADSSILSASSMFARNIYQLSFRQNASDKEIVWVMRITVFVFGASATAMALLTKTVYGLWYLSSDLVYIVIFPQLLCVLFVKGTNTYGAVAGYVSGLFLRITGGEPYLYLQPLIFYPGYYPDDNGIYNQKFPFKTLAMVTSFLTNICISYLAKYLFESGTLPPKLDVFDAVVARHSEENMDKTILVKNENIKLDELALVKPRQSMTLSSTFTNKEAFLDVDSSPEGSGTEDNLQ
Briefly: human choline transporter blockers, potency – cell-based, 5-point CRC, membrane potential dye, dose response (AID 504840). The class given is functional.

Experiment [9] can be described thus: blockers of CRF-binding protein–CRF-R2 complex – cell-based, uHTS hits, 384-well, dose response (AID 651639). The following applies: read-out: IC50_Mean. The class given is functional, Homo sapiens.
Experiment [10] deals with T3, Corticotropin-releasing factor receptor 2/Corticotropin-releasing factor-binding protein. Description: activators of CRF receptor 2 with binding protein – uHTS hits, confirmation (AID 602473). In kind it is functional. The following applies: read-out: EC50_Mean.
Experiment [11] concerns the target T4, High affinity choline transporter 1. Briefly: human choline transporter blockers, potency – cell-based, 10-point CRC, membrane potential dye, dose response (AID 588401).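 Also: membrane potential dye fluorescence of choline-evoked depolarization via CHT.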 The class given is functional.
Experiment [12] is described as follows: viability loss in THP-1 monocytes – THP-1 cells, cytotoxicity control for Vif-APOBEC3G degradation inhibitor project, dose response (AID 1117359). The class given is functional. The following applies: THP-1.
Another experiment concerns the target Caspase-8 (Homo sapiens, UniProt Q14790). Description: inhibitors of purified CASP8 protease – biochemical, Z-IETD-R110 fluorescence, cherry-picked samples, selectivity assay for caspase-6 inhibitor project, dose response (AID 743294).
Experiment [13] addresses Heat shock protein HSP 90-alpha (Homo sapiens, UniProt P07900). The class given is functional, organism-based.
Experiment [14] addresses Mitochondrial peptide methionine sulfoxide reductase (Bos taurus, UniProt P54149). Briefly: Absorbance-based biochemical high throughput dose response assay for activators of Methionine sulfoxide reductase A (MsrA). In kind it is functional.
For the next experiment, the target named is T5, Caspase-6 (Homo sapiens, UniProt P55212).
T5 sequence (P55212 whole entry): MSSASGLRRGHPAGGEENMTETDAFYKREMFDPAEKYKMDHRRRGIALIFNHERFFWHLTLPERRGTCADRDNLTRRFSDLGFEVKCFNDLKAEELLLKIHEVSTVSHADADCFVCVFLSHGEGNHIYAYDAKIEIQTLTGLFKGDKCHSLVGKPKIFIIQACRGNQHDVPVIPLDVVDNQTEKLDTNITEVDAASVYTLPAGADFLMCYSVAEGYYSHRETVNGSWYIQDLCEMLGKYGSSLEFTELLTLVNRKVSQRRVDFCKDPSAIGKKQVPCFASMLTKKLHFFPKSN
Description: inhibition of CASP6 peptide cleavage – biochemical, VEID-R110 fluorescence, cherry-pick, dose response (AID 720632).

A further experiment concerns the target T6, Caspase-7 (Homo sapiens, UniProt P55210).
T6 sequence (P55210 whole entry): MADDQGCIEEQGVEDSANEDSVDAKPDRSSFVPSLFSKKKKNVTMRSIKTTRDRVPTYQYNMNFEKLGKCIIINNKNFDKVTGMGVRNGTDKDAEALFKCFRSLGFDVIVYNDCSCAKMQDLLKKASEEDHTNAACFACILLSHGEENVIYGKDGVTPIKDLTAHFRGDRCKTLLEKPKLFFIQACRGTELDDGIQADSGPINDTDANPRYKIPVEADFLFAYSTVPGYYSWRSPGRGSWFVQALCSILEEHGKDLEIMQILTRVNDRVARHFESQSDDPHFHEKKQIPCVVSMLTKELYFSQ
Description: caspase-7 enzyme inhibition, selectivity check – biochemical, DEVD-R110 fluorescence, cherry-pick, selectivity assay for caspase-6 inhibitor project, dose response (AID 743295). In kind it is functional.

The target in another experiment is Melanocortin receptor 4 (Homo sapiens, UniProt P32245). The class given is functional, cell-based.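 Also: Cell-based assay with luminescence read-out, confirmatory dose-response testing for agonist activity of biased ligands at MC4R; human U2OS cells with tagged receptor and beta-arrestin; potency of agonists that increase receptor coupling to beta-arrestin.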
Melanocortin receptor 4, sequence (P32245 whole entry): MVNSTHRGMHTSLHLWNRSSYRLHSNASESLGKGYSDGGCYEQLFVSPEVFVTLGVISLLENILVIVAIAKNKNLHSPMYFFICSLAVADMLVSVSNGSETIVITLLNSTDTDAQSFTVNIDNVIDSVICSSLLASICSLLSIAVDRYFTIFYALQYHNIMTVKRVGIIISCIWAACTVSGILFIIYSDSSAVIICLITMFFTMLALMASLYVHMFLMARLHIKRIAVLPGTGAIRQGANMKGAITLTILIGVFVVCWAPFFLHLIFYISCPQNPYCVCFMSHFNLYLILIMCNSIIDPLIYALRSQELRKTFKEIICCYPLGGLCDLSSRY
In experiment [15] the target is Neuropeptides B/W receptor type 1 (Homo sapiens, UniProt P48145). Briefly: human NPBW1 receptor blockade, IC50 – cell-based, fluorescence, dose response, set 6, late-stage follow-up (AID 588583). The class given is functional.
Neuropeptides B/W receptor type 1, sequence (P48145 whole entry): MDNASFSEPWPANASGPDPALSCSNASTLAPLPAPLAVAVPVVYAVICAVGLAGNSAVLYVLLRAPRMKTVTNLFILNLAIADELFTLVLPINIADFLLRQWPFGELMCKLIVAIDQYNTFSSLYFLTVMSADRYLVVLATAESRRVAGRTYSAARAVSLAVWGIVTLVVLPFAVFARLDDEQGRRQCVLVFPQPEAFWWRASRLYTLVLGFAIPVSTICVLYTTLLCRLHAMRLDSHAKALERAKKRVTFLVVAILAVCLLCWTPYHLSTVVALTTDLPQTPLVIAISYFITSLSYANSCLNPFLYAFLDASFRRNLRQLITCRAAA
The target in experiment [16] is Melanin-concentrating hormone receptor 1 (Homo sapiens, UniProt Q99705). Briefly: Late-stage fluorescence-based counterscreen for antagonists of the G-protein coupled receptor 7 (GPR7): cell-based dose response assay to identify antagonists of the melanin-concentrating hormone receptor 1 (MCHR1) Set 6. The class given is functional.
Melanin-concentrating hormone receptor 1, sequence (Q99705 whole entry): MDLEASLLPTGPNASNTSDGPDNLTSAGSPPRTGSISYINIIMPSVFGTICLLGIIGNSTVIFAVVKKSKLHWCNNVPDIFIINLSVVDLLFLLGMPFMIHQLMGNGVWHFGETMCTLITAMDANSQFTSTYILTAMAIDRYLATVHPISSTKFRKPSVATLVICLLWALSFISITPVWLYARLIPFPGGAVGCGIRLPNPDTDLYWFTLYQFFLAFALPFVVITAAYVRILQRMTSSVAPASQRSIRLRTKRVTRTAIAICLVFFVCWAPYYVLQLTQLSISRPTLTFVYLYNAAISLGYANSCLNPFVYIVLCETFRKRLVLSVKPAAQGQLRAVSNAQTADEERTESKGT

Mitochondrial peptide methionine sulfoxide reductase, sequence (P54149 whole entry): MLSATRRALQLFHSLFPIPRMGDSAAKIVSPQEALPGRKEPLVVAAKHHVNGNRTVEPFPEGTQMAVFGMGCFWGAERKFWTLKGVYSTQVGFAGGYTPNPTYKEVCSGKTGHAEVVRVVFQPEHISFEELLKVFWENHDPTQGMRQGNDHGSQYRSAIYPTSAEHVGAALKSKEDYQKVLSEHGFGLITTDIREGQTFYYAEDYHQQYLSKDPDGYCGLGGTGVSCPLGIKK
Caspase-8, sequence (Q14790 217-374 limits assumed): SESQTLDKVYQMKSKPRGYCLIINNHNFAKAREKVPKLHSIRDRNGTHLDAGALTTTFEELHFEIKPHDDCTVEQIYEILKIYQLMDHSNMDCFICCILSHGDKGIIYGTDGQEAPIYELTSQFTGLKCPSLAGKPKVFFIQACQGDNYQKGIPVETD
Caspase-8, sequence (Q14790 385-479 limits assumed): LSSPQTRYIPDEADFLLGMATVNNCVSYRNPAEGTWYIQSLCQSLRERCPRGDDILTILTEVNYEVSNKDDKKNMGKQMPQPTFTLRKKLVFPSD

Consider `O=C(Nc1cccc(S(=O)(=O)NCc2ccco2)c1)c1cc(-c2ccc(F)cc2)nc2ccccc12`, for which the CC50 in experiment [1] is 2.38 µM (active). The IC50 in experiment [2] is > 49.8 µM (inactive); in experiment [3] it was 6.13 µM (active); in [4], 17.2 µM (inactive); at Orexin receptor type 2 [5], 9.9 µM (active); with CHO-K1, > 66.2 µM (inactive); at Orexin receptor type 2 [6], > 50 µM (inactive).
Consider `CC(c1ccco1)N(C(=O)c1ccccc1NS(=O)(=O)c1ccc(Cl)c([N+](=O)[O-])c1)c1ccccn1` (stereo unspecified), for which the IC50 in [7] was 20.3 µM (active); in [8] it was 0.661 µM (inconclusive); in experiment [9], 18 µM (active); in experiment [11], 4.01 µM (active). Also, in experiment [10], the EC50 is > 53 µM (inactive).
Take `Cc1c2ccccc2nc2c(F)c(N(C)C)c(F)c(F)c12`: in [12], the CC50 is > 40 µM (active). For the same compound, the IC50 was 19.7 µM (inactive) in experiment [2]; 1.01 µM (active) in experiment [3]; 2.19 µM (active) in [4]; 32.2 µM (inactive) at Orexin receptor type 2 [5]; > 66.2 µM (inactive) with CHO-K1; > 50 µM (inactive) on Orexin receptor type 2 [6].
For the compound `CC(C)(C)c1ccc(NC(=O)COC(=O)c2ccc([N+](=O)[O-])s2)cc1`, the half-maximal activity concentration (AC50) on Caspase-8 is 37.4 µM (active); in experiment [13] it was 2.85 µM (active); on Caspase-6 it was 3.59 µM (active); at Caspase-7, 21.7 µM (active). In addition, in experiment [14], the EC50 was 54.7 µM (inactive).
Take `NC(Cc1ccc(Cl)cc1)c1csc(Nc2ccc(-c3ccccc3)nn2)n1` (stereo unspecified): the EC50 on Melanocortin receptor 4 is > 89.2 µM (inactive).
As to `O=c1c(-c2ccccc2F)c(Br)cnn1Cc1cccc2ccccc12`, the IC50 in [15] and in [16] was 3.58 µM (active) throughout.
For `CCOc1ccc(C(C#N)c2c(Br)cnn(Cc3cccc4ccccc34)c2=O)cc1` (stereo unspecified), the IC50 in experiment [15] and in experiment [16] was 0.4 µM (active) each time.
Take `C/C(=N\N=C(N)N)c1ccc(Cl)cc1`: the results for the IC50 in experiment [8] and in [11] were 7.39 µM (active) and 4.01 µM (active), respectively.
